What is called IC50 is the concentration that inhibits the measured activity by half.

Bounds are passed on as bounds.

Der p 1, sequence (P08176 99-320): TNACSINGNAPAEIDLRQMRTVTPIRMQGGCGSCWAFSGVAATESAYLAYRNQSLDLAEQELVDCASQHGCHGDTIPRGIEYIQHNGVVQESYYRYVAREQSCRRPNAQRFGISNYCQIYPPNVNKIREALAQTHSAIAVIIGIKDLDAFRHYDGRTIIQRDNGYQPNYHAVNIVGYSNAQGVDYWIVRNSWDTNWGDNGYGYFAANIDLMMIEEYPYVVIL

One assay concerns the target Der p 1 (Dermatophagoides pteronyssinus (European house dust mite), UniProt P08176). In words: Der p 1 enzyme activity assay (FRET fluorogenic substrate). Format: biochemical. The conditions noted are these: Der p 1 IC50. As to the method:
The fluorogenic substrate used for measuring Der p 1 proteolytic activity was 2-aminobenzoylvalylalanylnorleucylseryl-(3-nitro)tyrosinyl aspartamide.
Test compounds were dissolved in dry DMSO and maintained at 4° C. as stock solutions until being diluted for use in screening assays. Final concentration of DMSO in all enzymatic assays was 0.5% v/v.
Reaction mixtures were assembled in a 96-well plate format (Perkin Elmer Optiplate 96F, Perkin Elmer LAS, Seer Green, Buckinghamshire, UK) using a Perkin Elmer MultiPROBE II Plus HTS EX robot with Gripper attachment. […] Dithiothreitol (DTT, 10 μL/well, 1 mM final concentration) was then added together with 10 μL of Der p 1 dissolved at 2.5 μg/mL in reaction buffer supplemented with 1 mM DTT. […] The plate was immediately transferred to a fluorescence plate reader (Perkin Elmer Fusion Alpha-FP or Perkin Elmer Envision) equipped with a temperature-controlled carrier set at 30° C. and the reaction followed by excitation/emission at 330/420 nm.
Inhibitory activity was analysed from progress curves of reactions in the presence of a range of inhibitor concentrations.
Initial velocity in each well was converted to fractional activity by Equation 1: Fractional activity=(Initial rate at inhibitor concentration[X]/Initial rate at inhibitor concentration zero)*100 Equation 1:
Then, IC50 was determined by fitting the data of fractional activity and inhibitor concentration to a 4-parameter logistic curve, using Equation 2: V=Vmin+[Vmax−Vmin]/[1+(X/IC50)Hillslope] […] Biological Data—Der p 1 Enzyme Assay
`CC(C)[C@H](NC(=O)[C@H](C)NC(=O)[C@H](Cc1ccccc1)NC(=O)c1ccccc1)C(=O)C(=O)NCC(=O)N1CCN(C)CC1` [PVA-047] returned an IC50 of under 20 nM.
In turn, `CC(C)[C@H](NC(=O)[C@H](C)NC(=O)[C@@H](NC(=O)c1ccccc1)C(C)(C)C)C(=O)C(=O)NCC(=O)N1CCN(C)CC1` [PVA-055] gave an IC50 of under 20 nM.
The same measure, in the same setting: the figure for `CC(C)[C@H](NC(=O)[C@H](C)NC(=O)[C@@H](NC(=O)c1ccccc1)C(C)(C)C)C(=O)C(=O)N[C@@H]1CN2CCC1CC2` [PVA-120] is under 200 nM.

The same assay, now with this note: threshold stated in text; read-out: Der p 1 IC50.
Turning to `CC(C)[C@H](NC(=O)[C@H](C)NC(=O)[C@@H](NC(=O)c1cc[nH]c(=O)c1)C(C)(C)C)C(=O)C(=O)NCc1ccccc1` [PVA-114], the concentration for half-maximal inhibition (IC50) is under 200 nM.
Same read-out and setting: the same measure for `CC(C)[C@H](NC(=O)[C@H](C)NC(=O)[C@@H](NC(=O)c1cccc(OCc2nccn2C)c1)C(C)(C)C)C(=O)C(=O)NC1CCCCC1` [PVA-075]: under 200 nM.
`CC(C)[C@H](NC(=O)[C@H](C)NC(=O)[C@@H](NC(=O)c1ccccc1)C(C)(C)C)C(=O)C(=O)N[C@H](C(=O)N1CCN(C)CC1)C(C)C` [PVA-127]: the IC50 was under 200 nM.
Turning to `CC(C)[C@H](NC(=O)[C@H](C)NC(=O)[C@@H](NC(=O)c1ccc(Cl)cc1)C(C)(C)C)C(=O)C(=O)NCc1ccccc1` [PVA-184], the half-inhibitory concentration (IC50) is under 200 nM.
In the case of `CC(C)[C@H](NC(=O)[C@H](C)NC(=O)[C@@H](NC(=O)c1ccccc1)C12CC3CC(CC(C3)C1)C2)C(=O)C(=O)NCc1ccc(S(N)(=O)=O)cc1` [PVA-214], the concentration for half-maximal inhibition (IC50) is under 20 nM.
The same measure, in the same setting: the figure for `CC(C)[C@H](NC(=O)[C@H](C)NC(=O)[C@@H](NC(=O)C1CCN(C)CC1)C(C)(C)C)C(=O)C(=O)NCc1ccccc1` [PVA-216] is under 20 nM.
Still for that read-out and setting: the figure for `CC(C)[C@H](NC(=O)[C@H](C)NC(=O)[C@@H]1Cc2ccccc2CN1C(=O)c1ccccc1)C(=O)C(=O)NC1CCCCC1` [PVA-100] is under 200 nM.
For `CC(=O)Nc1ccc(C(=O)N[C@@H](Cc2ccccc2)C(=O)N[C@@H](C)C(=O)N[C@H](C(=O)C(=O)NCc2ccccc2)C(C)C)cn1` [PVA-059], the IC50 was under 200 nM.
Consider `CC(C)[C@H](NC(=O)[C@H](C)NC(=O)[C@@H](NC(=O)c1ccccc1)C(C)(C)C)C(=O)C(=O)N[C@H](C)c1ccccc1` [PVA-132], for which the IC50 is under 20 nM.
As for `CCCCC(NC(=O)[C@H](C)NC(=O)[C@H](Cc1ccccc1)NC(=O)c1ccccc1)C(=O)C(=O)N1CCCC1` (stereo partly shown) [PVA-006], the half-maximal inhibitory concentration (IC50) is under 2000 nM.
For the compound `Cc1n[nH]c(C)c1C(=O)N[C@H](C(=O)N[C@@H](C)C(=O)N[C@H](C(=O)C(=O)NCc1ccccc1)C(C)C)C(C)(C)C` [PVA-115], the IC50 is under 200 nM.
Take `CC(C)[C@H](NC(=O)[C@H](C)NC(=O)[C@@H](NC(=O)c1cccc(N2CCN(C)CC2)c1)C(C)(C)C)C(=O)C(=O)NCc1ccccc1` [PVA-173]: the concentration for half-maximal inhibition (IC50) is under 200 nM.
As for `CC(C)[C@H](NC(=O)[C@H](C)NC(=O)[C@@H](NC(=O)c1ccccc1)C(C)(C)C)C(=O)C(=O)NCc1ccc(CN2CCCCC2)cc1` [PVA-165], the IC50 was under 200 nM.
On to `CC(C)[C@H](NC(=O)[C@H](C)NC(=O)[C@@H](N1Cc2ccccc2C1=O)C(C)(C)C)C(=O)C(=O)NCc1ccc(S(N)(=O)=O)cc1` [PVA-206], for which the half-maximal inhibitory concentration (IC50) was under 20 nM.
In the case of `CC(C)[C@H](NC(=O)[C@H](C)NC(=O)[C@@H](NC(=O)C1CCN(C(C)C)CC1)C(C)(C)C)C(=O)C(=O)NCc1ccccc1` [PVA-172], the IC50 is under 200 nM.
On to `CC(C)[C@H](NC(=O)[C@H](C)NC(=O)[C@@H](NC(=O)c1ccnc2ccccc12)C(C)(C)C)C(=O)C(=O)NC1CCCCC1` [PVA-071], for which the IC50 was under 20 nM.
With `CCCCC(NC(=O)[C@H](C)NC(=O)[C@H](Cc1ccccc1)NC(=O)c1ccccc1)C(=O)C(=O)N1CCN(C)CC1` (stereo partly shown) [PVA-007], the IC50 was under 2000 nM.
On the same count and under the same terms, the figure for `CC(C)[C@H](NC(=O)[C@H](C)NC(=O)[C@@H](Cc1cccc2ccccc12)NC(=O)c1ccccc1)C(=O)C(=O)NCc1ccccc1` [PVA-034] is under 2000 nM; for `CC(C)[C@H](NC(=O)[C@H](C)NC(=O)[C@H](Cc1ccccc1)NC(=O)c1ccccc1)C(=O)C(=O)NCC(=O)N1CCC(N(C)C)CC1` [PVA-093] it is under 20 nM.
`CC(C)[C@H](NC(=O)[C@H](C)NC(=O)[C@@H](NC(=O)c1ccccc1)C(C)(C)C)C(=O)C(=O)NCc1cn[nH]c1` [PVA-158]: the half-maximal inhibitory concentration (IC50) is under 20 nM.
Regarding `CC(C)[C@H](NC(=O)[C@H](C)NC(=O)[C@@H](NC(=O)C1CC[N+](C)(C)CC1)C(C)(C)C)C(=O)C(=O)NC1CCCCC1` [PVA-153], the IC50 was under 20 nM.
For the compound `CC(C)[C@H](NC(=O)[C@H](C)NC(=O)[C@@H](N1Cc2ccccc2C1=O)C(C)(C)C)C(=O)C(=O)NC1CC1` [PVA-177], the IC50 is under 20 nM.
`CC(C)[C@H](NC(=O)[C@H](C)NC(=O)[C@@H](NC(=O)c1cncc2ccccc12)C(C)(C)C)C(=O)C(=O)NCc1ccccc1` [PVA-074]: the IC50 was under 20 nM.
Consider `CC(C)[C@H](NC(=O)[C@H](C)NC(=O)[C@@H](NC(=O)c1ccccc1)C(C)(C)C)C(=O)C(=O)NC1CCC1` [PVA-203], for which the IC50 was under 200 nM.
The same measure, in the same setting: the figure for `CNC(=O)c1ccc(CNC(=O)C(=O)[C@@H](NC(=O)[C@H](C)NC(=O)[C@@H](NC(=O)c2ccccc2)C(C)(C)C)C(C)C)cc1` [PVA-196] is under 20 nM; for `CC(C)[C@H](NC(=O)[C@H](C)NC(=O)[C@@H](Cc1ccc2ccccc2c1)NC(=O)c1ccccc1)C(=O)C(=O)NCc1ccccc1` [PVA-032] it is under 200 nM; for `CC(C)[C@H](NC(=O)[C@H](C)NC(=O)[C@H](Cc1ccccc1)NC(=O)c1cccc2ccccc12)C(=O)C(=O)NCC(=O)N1CCN(C)CC1` [PVA-095] it is under 200 nM.
Consider `CC(C)[C@H](NC(=O)[C@H](C)NC(=O)[C@H](Cc1ccccc1)NC(=O)c1ccccc1)C(=O)C(=O)Nc1ccc(F)cc1` [PVA-011], for which the 50% inhibitory concentration (IC50) is under 200 nM.
The same measure, in the same setting: the figure for `CC(=O)Nc1cc(C(=O)N[C@@H](Cc2ccccc2)C(=O)N[C@@H](C)C(=O)N[C@H](C(=O)C(=O)NCc2ccccc2)C(C)C)ccn1` [PVA-060] is under 200 nM.
For `CC(C)[C@H](NC(=O)[C@H](C)NC(=O)[C@H](NC(=O)c1ccccc1)C1Cc2ccccc2C1)C(=O)C(=O)NC1CCCCC1` [PVA-029], the half-inhibitory concentration (IC50) was under 2000 nM.
`COC(=O)c1cccc(CNC(=O)C(=O)[C@@H](NC(=O)[C@H](C)NC(=O)[C@H](Cc2ccccc2)NC(=O)c2ccccc2)C(C)C)c1` [PVA-080]: the IC50 is under 20 nM.
On the same count and under the same terms, the same measure for `CC(C)[C@H](NC(=O)[C@H](C)NC(=O)[C@@H](NC(=O)c1ccccc1)C(C)(C)C)C(=O)C(=O)NCC(=O)N1CCCCC1` [PVA-078]: under 20 nM.
Consider `CC(C)[C@H](NC(=O)[C@H](C)NC(=O)[C@@H](NC(=O)c1ccccc1)C(C)(C)C)C(=O)C(=O)NCc1ccccc1Cl` [PVA-193], for which the IC50 was under 200 nM.
For the compound `CC(C)[C@H](NC(=O)[C@H](C)NC(=O)[C@@H](NC(=O)c1ccccc1)C(C)(C)C)C(=O)C(=O)NCC(=O)N1CCC(N(C)C)C1` (stereo partly shown) [PVA-105], the IC50 is under 20 nM.
`CC(C)[C@H](NC(=O)[C@H](C)NC(=O)[C@@H](Cc1ccncc1)NC(=O)c1ccccc1)C(=O)C(=O)NC1CCCCC1` [PVA-036]: the half-maximal inhibitory concentration (IC50) was under 200 nM.
Still for that read-out and setting: the same measure for `CC(C)[C@H](NC(=O)[C@H](C)NC(=O)[C@@H](NC(=O)c1cccc2ccccc12)C(C)(C)C)C(=O)C(=O)NCc1ccccc1` [PVA-056]: under 200 nM; for `CC(C)[C@H](NC(=O)[C@H](C)NC(=O)[C@@H](Cc1ccccc1F)NC(=O)c1ccccc1)C(=O)C(=O)NC1CCCCC1` [PVA-030]: under 200 nM.
Take `CC(C)[C@H](NC(=O)[C@H](C)NC(=O)[C@@H](NC(=O)c1ccccc1)C12C[C@H]3C[C@@H](C1)C[C@@H](C2)C3)C(=O)C(=O)NCc1ccccc1` [PVA-066]: the 50% inhibitory concentration (IC50) is under 20 nM.
With `Cc1cc(CNC(=O)C(=O)[C@@H](NC(=O)[C@H](C)NC(=O)[C@@H](NC(=O)c2ccccc2)C(C)(C)C)C(C)C)n(C)n1` [PVA-168], the IC50 was under 200 nM.
For the compound `CC(C)[C@H](NC(=O)[C@H](C)NC(=O)[C@@H](NC(=O)c1ccccc1)C(C)(C)C)C(=O)C(=O)NCc1ccc(NC(N)=O)cc1` [PVA-194], the 50% inhibitory concentration (IC50) is under 20 nM.
Still for that read-out and setting: the same measure for `CC(=O)Nc1cc(C(=O)N[C@H](C(=O)N[C@@H](C)C(=O)N[C@H](C(=O)C(=O)NC2CCCCC2)C(C)C)C(C)(C)C)ccn1` [PVA-062]: under 200 nM; for `CC(C)[C@H](NC(=O)[C@H](C)NC(=O)[C@H](Cc1ccccc1)NC(=O)c1ccccc1)C(=O)C(=O)NCc1ccc2c(c1)OCO2` [PVA-041]: under 200 nM.
In the case of `CC(C)[C@H](NC(=O)[C@H](C)NC(=O)[C@H](Cc1ccccc1)NC(=O)c1ccccc1)C(=O)C(=O)NCc1cccc(C(=O)O)c1` [PVA-081], the IC50 was under 200 nM.
With `CC(C)[C@H](NC(=O)[C@H](C)NC(=O)[C@@H](Cc1ccccc1)NC(=O)c1ccc(-c2ccccc2)cc1)C(=O)C(=O)NC1CCCCC1` [PVA-019], the IC50 was under 200 nM.
Same read-out and setting: the same measure for `CC(C)[C@H](NC(=O)[C@H](C)NC(=O)[C@@H](NC(=O)c1ccccc1)C(C)(C)C)C(=O)C(=O)NCc1cncn1C` [PVA-124]: under 200 nM; for `CC(C)[C@H](NC(=O)[C@H](C)NC(=O)C1CCCN1C(=O)c1ccccc1)C(=O)C(=O)NCC(=O)N1CCN(C)CC1` (stereo partly shown) [PVA-140]: under 2000 nM.

These data come from patent US8541363B2, “Pyruvamide compounds as inhibitors of dust mite group 1 peptidase allergen and their use” (St George's Hosptial Medical School, priority 2010, dated 2013).
